Data: PubChem BioAssay (NCI)
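These data come from cells grown in 96-well plates and exposed to compound for 48 hours at five concentrations. TGI: concentration producing complete growth inhibition.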

Columns and labels:
Experiment in all cases: NCI anticancer screen, dose series, 48 h
A498 renal = test system: A498 renal
A549 NSCLC = test system: A549 NSCLC
ACHN renal = test system: ACHN renal
CCRF-CEM leukemia = test system: CCRF-CEM leukemia
DMS 114 small cell lung = test system: DMS 114 small cell lung
DMS 273 small cell lung = test system: DMS 273 small cell lung
EKVX NSCLC = test system: EKVX NSCLC
HCT-116 colon = test system: HCT-116 colon
HL-60(TB) leukemia = test system: HL-60(TB) leukemia
HOP-62 NSCLC = test system: HOP-62 NSCLC
HOP-92 NSCLC = test system: HOP-92 NSCLC
HT29 colon = test system: HT29 colon
IGROV1 ovarian = test system: IGROV1 ovarian
KM12 colon = test system: KM12 colon
KM20L2 colon = test system: KM20L2 colon
M14 melanoma = test system: M14 melanoma
M19-MEL melanoma = test system: M19-MEL melanoma
MOLT-4 leukemia = test system: MOLT-4 leukemia
NCI-H23 lung = test system: NCI-H23 lung
NCI-H460 lung = test system: NCI-H460 lung
NCI-H522 lung = test system: NCI-H522 lung
OVCAR-5 ovarian = test system: OVCAR-5 ovarian
OVCAR-8 ovarian = test system: OVCAR-8 ovarian
RXF 393 renal = test system: RXF 393 renal
RXF-631 renal = test system: RXF-631 renal
SF-295 CNS = test system: SF-295 CNS
SK-MEL-28 melanoma = test system: SK-MEL-28 melanoma
SK-OV-3 ovarian = test system: SK-OV-3 ovarian
SNB-19 CNS = test system: SNB-19 CNS
SNB-78 CNS = test system: SNB-78 CNS
SR leukemia = test system: SR leukemia
TK-10 renal = test system: TK-10 renal
U251 CNS = test system: U251 CNS
UACC-257 melanoma = test system: UACC-257 melanoma
UACC-62 melanoma = test system: UACC-62 melanoma
UO-31 renal = test system: UO-31 renal
786-0 renal = test system: 786-0 renal
CAKI-1 renal = test system: CAKI-1 renal
COLO 205 colon = test system: COLO 205 colon
DLD-1 colon = test system: DLD-1 colon
HCC-2998 colon = test system: HCC-2998 colon
HOP-18 NSCLC = test system: HOP-18 NSCLC
K-562 leukemia = test system: K-562 leukemia
LOX IMVI melanoma = test system: LOX IMVI melanoma
LXFL 529 NSCLC = test system: LXFL 529 NSCLC
MALME-3M melanoma = test system: MALME-3M melanoma
NCI-H226 lung = test system: NCI-H226 lung
OVCAR-3 ovarian = test system: OVCAR-3 ovarian
OVCAR-4 ovarian = test system: OVCAR-4 ovarian
RPMI-8226 leukemia = test system: RPMI-8226 leukemia
SF-268 CNS = test system: SF-268 CNS
SF-539 CNS = test system: SF-539 CNS
SK-MEL-2 melanoma = test system: SK-MEL-2 melanoma
SK-MEL-5 melanoma = test system: SK-MEL-5 melanoma
SN12C renal = test system: SN12C renal
SNB-75 CNS = test system: SNB-75 CNS
SW-620 colon = test system: SW-620 colon
HCT-15 colon = test system: HCT-15 colon
XF 498 CNS = test system: XF 498 CNS

In the case of `COc1ccccc1-c1csc(CCC(N)C(=O)O)n1` (stereo not drawn), the TGI (A498 renal) is reported as > 100 µM, the TGI (A549 NSCLC) is reported as > 100 µM and the TGI (ACHN renal) is reported as > 100 µM. For the same compound, the TGI (CCRF-CEM leukemia) was > 100 µM, the TGI (DMS 114 small cell lung) was > 100 µM and the TGI (DMS 273 small cell lung) was > 100 µM. The TGI (EKVX NSCLC) was > 100 µM, the TGI (HCT-116 colon) was > 100 µM and the TGI (HL-60(TB) leukemia) was > 100 µM. The TGI (HOP-62 NSCLC) was > 100 µM, the TGI (HOP-92 NSCLC) was > 100 µM and the TGI (HT29 colon) was > 100 µM. The TGI (IGROV1 ovarian) was > 100 µM, the TGI (KM12 colon) was > 100 µM and the TGI (KM20L2 colon) was > 100 µM. The TGI (M14 melanoma) was > 100 µM, the TGI (M19-MEL melanoma) was > 100 µM and the TGI (MOLT-4 leukemia) was > 100 µM. The TGI (NCI-H23 lung) was > 100 µM, the TGI (NCI-H460 lung) was > 100 µM and the TGI (NCI-H522 lung) was > 100 µM. For the same compound, the TGI (OVCAR-5 ovarian) was > 100 µM, the TGI (OVCAR-8 ovarian) was > 100 µM and the TGI (RXF 393 renal) was > 100 µM. The TGI (RXF-631 renal) was > 100 µM, the TGI (SF-295 CNS) was > 100 µM and the TGI (SK-MEL-28 melanoma) was > 100 µM. The TGI (SK-OV-3 ovarian) was > 100 µM, the TGI (SNB-19 CNS) was > 100 µM and the TGI (SNB-78 CNS) was > 100 µM. The TGI (SR leukemia) was > 100 µM, the TGI (TK-10 renal) was 75.4 µM and the TGI (U251 CNS) was > 100 µM. The TGI (UACC-257 melanoma) was > 100 µM, the TGI (UACC-62 melanoma) was > 100 µM and the TGI (UO-31 renal) was > 100 µM.

With `COc1cc(/C=C2\[C@@H]3NC(Cc4c(OC)c(C)c(OC)c(OC)c43)C(=O)N2Cc2ccccc2)c(OC)c(C)c1OC` the TGI (786-0 renal) was > 100 µM, the TGI (A498 renal) was > 100 µM and the TGI (A549 NSCLC) was > 100 µM. For the same compound, the TGI (ACHN renal) was > 100 µM, the TGI (CAKI-1 renal) was 89 µM and the TGI (CCRF-CEM leukemia) was > 100 µM. The TGI (COLO 205 colon) was 28.3 µM, the TGI (DLD-1 colon) was > 100 µM and the TGI (DMS 114 small cell lung) was > 100 µM. For the same compound, the TGI (DMS 273 small cell lung) was > 100 µM, the TGI (EKVX NSCLC) was 90.5 µM and the TGI (HCC-2998 colon) was > 100 µM. The TGI (HCT-116 colon) was > 100 µM, the TGI (HL-60(TB) leukemia) was 62.8 µM and the TGI (HOP-18 NSCLC) was > 100 µM. For the same compound, the TGI (HOP-62 NSCLC) was > 100 µM, the TGI (HOP-92 NSCLC) was 69.1 µM and the TGI (HT29 colon) was 68.1 µM. The TGI (IGROV1 ovarian) was > 100 µM, the TGI (K-562 leukemia) was > 100 µM and the TGI (KM12 colon) was > 100 µM. For the same compound, the TGI (KM20L2 colon) was 96.3 µM, the TGI (LOX IMVI melanoma) was > 100 µM and the TGI (LXFL 529 NSCLC) was > 100 µM. The TGI (M14 melanoma) was > 100 µM, the TGI (M19-MEL melanoma) was 77.3 µM and the TGI (MALME-3M melanoma) was 91.4 µM. The TGI (MOLT-4 leukemia) was 94 µM, the TGI (NCI-H226 lung) was > 100 µM and the TGI (NCI-H23 lung) was > 100 µM. The TGI (NCI-H460 lung) was 60.7 µM, the TGI (NCI-H522 lung) was 55 µM and the TGI (OVCAR-3 ovarian) was > 100 µM. For the same compound, the TGI (OVCAR-4 ovarian) was 89.8 µM, the TGI (OVCAR-5 ovarian) was > 100 µM and the TGI (OVCAR-8 ovarian) was > 100 µM. For the same compound, the TGI (RPMI-8226 leukemia) was 91.8 µM, the TGI (RXF 393 renal) was 72.8 µM and the TGI (RXF-631 renal) was > 100 µM. For the same compound, the TGI (SF-268 CNS) was > 100 µM, the TGI (SF-295 CNS) was > 100 µM and the TGI (SF-539 CNS) was > 100 µM. The TGI (SK-MEL-2 melanoma) was 36.3 µM, the TGI (SK-MEL-28 melanoma) was > 100 µM and the TGI (SK-MEL-5 melanoma) was > 100 µM. The TGI (SK-OV-3 ovarian) was > 100 µM, the TGI (SN12C renal) was > 100 µM and the TGI (SNB-19 CNS) was > 100 µM. For the same compound, the TGI (SNB-75 CNS) was > 100 µM, the TGI (SR leukemia) was 62.8 µM and the TGI (SW-620 colon) was > 100 µM. For the same compound, the TGI (TK-10 renal) was > 100 µM, the TGI (U251 CNS) was > 100 µM and the TGI (UACC-257 melanoma) was > 100 µM. For the same compound, the TGI (UACC-62 melanoma) was > 100 µM and the TGI (UO-31 renal) was 80.5 µM.

With `N#CC1=C(O)NC(O)=C(C#N)C1c1c(Cl)cccc1Cl` the TGI (A498 renal) was 64.5 µM, the TGI (A549 NSCLC) was > 100 µM and the TGI (ACHN renal) was > 100 µM. The TGI (CAKI-1 renal) was > 100 µM, the TGI (CCRF-CEM leukemia) was > 100 µM and the TGI (COLO 205 colon) was > 100 µM. The TGI (DLD-1 colon) was 58 µM, the TGI (DMS 114 small cell lung) was 46 µM and the TGI (DMS 273 small cell lung) was 92 µM. The TGI (EKVX NSCLC) was > 100 µM, the TGI (HCC-2998 colon) was 60 µM and the TGI (HCT-116 colon) was > 100 µM. The TGI (HCT-15 colon) was 51.9 µM, the TGI (HL-60(TB) leukemia) was > 100 µM and the TGI (HOP-18 NSCLC) was > 100 µM. The TGI (HOP-62 NSCLC) was 67.8 µM, the TGI (HOP-92 NSCLC) was 43.9 µM and the TGI (HT29 colon) was > 100 µM. For the same compound, the TGI (IGROV1 ovarian) was > 100 µM, the TGI (K-562 leukemia) was > 100 µM and the TGI (KM12 colon) was 71.5 µM. The TGI (KM20L2 colon) was > 100 µM, the TGI (LOX IMVI melanoma) was 32 µM and the TGI (M14 melanoma) was > 100 µM. For the same compound, the TGI (M19-MEL melanoma) was > 100 µM, the TGI (MALME-3M melanoma) was > 100 µM and the TGI (MOLT-4 leukemia) was > 100 µM. For the same compound, the TGI (NCI-H226 lung) was 64.9 µM, the TGI (NCI-H23 lung) was > 100 µM and the TGI (NCI-H460 lung) was 61.5 µM. For the same compound, the TGI (NCI-H522 lung) was > 100 µM, the TGI (OVCAR-3 ovarian) was > 100 µM and the TGI (OVCAR-4 ovarian) was > 100 µM. For the same compound, the TGI (OVCAR-5 ovarian) was 98.5 µM, the TGI (OVCAR-8 ovarian) was 45 µM and the TGI (RPMI-8226 leukemia) was > 100 µM. The TGI (RXF 393 renal) was 28.7 µM, the TGI (SF-268 CNS) was > 100 µM and the TGI (SF-295 CNS) was > 100 µM. For the same compound, the TGI (SF-539 CNS) was 41.3 µM, the TGI (SK-MEL-2 melanoma) was 52.3 µM and the TGI (SK-MEL-28 melanoma) was > 100 µM. For the same compound, the TGI (SK-MEL-5 melanoma) was > 100 µM, the TGI (SK-OV-3 ovarian) was 69.1 µM and the TGI (SN12C renal) was > 100 µM. For the same compound, the TGI (SNB-19 CNS) was > 100 µM, the TGI (SNB-75 CNS) was 48.4 µM and the TGI (SNB-78 CNS) was > 100 µM. The TGI (SR leukemia) was > 100 µM, the TGI (SW-620 colon) was > 100 µM and the TGI (TK-10 renal) was > 100 µM. For the same compound, the TGI (U251 CNS) was > 100 µM, the TGI (UACC-257 melanoma) was > 100 µM and the TGI (UACC-62 melanoma) was > 100 µM. The TGI (UO-31 renal) was > 100 µM and the TGI (XF 498 CNS) was > 100 µM.
